Earlier results on 1 compound are cited in article PMC9851200, “Multiparameter phenotypic screening for endogenous TFEB and TFE3 translocation identifies novel chemical series modulating lysosome function” (Autophagy, 2022).

Holding throughout (design): method as in original PKIS2 published data
The target of data set [1] is T1, kinases (KINOMEscan panel) (Homo sapiens, UniProt O15111).
T1 sequence (O15111 1-745): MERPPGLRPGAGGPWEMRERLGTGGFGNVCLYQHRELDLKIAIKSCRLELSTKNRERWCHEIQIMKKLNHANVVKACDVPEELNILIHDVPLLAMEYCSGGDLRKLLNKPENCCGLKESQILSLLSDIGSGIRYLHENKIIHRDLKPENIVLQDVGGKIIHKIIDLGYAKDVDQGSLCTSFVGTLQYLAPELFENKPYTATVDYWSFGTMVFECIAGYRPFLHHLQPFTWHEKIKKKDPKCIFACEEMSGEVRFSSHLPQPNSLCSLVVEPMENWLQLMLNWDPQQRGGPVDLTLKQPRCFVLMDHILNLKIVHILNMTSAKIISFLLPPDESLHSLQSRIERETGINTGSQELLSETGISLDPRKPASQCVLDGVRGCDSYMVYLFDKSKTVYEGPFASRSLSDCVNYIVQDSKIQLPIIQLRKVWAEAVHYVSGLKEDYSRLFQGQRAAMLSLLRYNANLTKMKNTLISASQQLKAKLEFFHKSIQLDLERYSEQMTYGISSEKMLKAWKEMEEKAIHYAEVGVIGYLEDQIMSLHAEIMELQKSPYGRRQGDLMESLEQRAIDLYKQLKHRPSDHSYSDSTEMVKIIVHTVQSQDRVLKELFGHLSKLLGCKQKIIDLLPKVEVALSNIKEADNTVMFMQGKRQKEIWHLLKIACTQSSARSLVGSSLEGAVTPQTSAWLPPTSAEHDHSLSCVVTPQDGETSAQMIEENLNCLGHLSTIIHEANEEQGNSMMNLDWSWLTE
The following applies: cited from earlier work.

Data set [2] has as its target kinases (KINOMEscan panel) (Homo sapiens, UniProt O60331). The following applies: PIP5K1C; Published KINOMEscan; ref original PKIS2 published data; cited from earlier work.
For data set [3], the target named is kinases (KINOMEscan panel) (Homo sapiens, UniProt P54764). The following applies: EPHA4; Published KINOMEscan; ref original PKIS2 published data; cited from earlier work.
Data set [4] concerns the target T2, kinases (KINOMEscan panel) (Homo sapiens, UniProt Q08881).
T2 sequence (Q08881 1-620): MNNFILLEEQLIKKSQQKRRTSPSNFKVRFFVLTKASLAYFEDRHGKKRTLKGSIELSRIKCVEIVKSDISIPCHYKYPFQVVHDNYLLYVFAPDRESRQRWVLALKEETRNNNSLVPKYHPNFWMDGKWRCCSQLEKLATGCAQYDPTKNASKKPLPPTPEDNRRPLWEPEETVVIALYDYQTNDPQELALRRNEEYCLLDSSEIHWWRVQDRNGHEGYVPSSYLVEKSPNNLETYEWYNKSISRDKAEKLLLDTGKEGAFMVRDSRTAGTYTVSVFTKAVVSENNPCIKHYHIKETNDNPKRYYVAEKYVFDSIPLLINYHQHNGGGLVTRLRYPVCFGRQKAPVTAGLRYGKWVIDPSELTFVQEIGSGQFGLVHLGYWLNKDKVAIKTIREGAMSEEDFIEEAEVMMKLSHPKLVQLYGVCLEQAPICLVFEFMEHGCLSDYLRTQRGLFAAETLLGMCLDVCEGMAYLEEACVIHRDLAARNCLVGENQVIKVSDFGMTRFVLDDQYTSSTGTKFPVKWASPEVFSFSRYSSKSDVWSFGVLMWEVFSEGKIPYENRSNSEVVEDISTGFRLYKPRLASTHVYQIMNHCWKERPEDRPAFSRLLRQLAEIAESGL
As to conditions: kinase ITK; Published KINOMEscan; ref original PKIS2 published data; cited from earlier work.

For data set [5], the target named is kinases (KINOMEscan panel) (Homo sapiens, UniProt Q16513). The following applies: kinase PKN2; Published KINOMEscan; ref original PKIS2 published data; cited from earlier work.
In data set [6] the target is kinases (KINOMEscan panel) (Homo sapiens, UniProt Q9HAZ1). The following applies: kinase CLK4; Published KINOMEscan; ref original PKIS2 published data; cited from earlier work.
The target in data set [7] is kinases (KINOMEscan panel) (Homo sapiens, UniProt Q9UM73). The following applies: kinase ALK; Published KINOMEscan; ref original PKIS2 published data; cited from earlier work.
Sequence of kinases (KINOMEscan panel) (Homo sapiens, UniProt Q9UM73) (Q9UM73 19-1620): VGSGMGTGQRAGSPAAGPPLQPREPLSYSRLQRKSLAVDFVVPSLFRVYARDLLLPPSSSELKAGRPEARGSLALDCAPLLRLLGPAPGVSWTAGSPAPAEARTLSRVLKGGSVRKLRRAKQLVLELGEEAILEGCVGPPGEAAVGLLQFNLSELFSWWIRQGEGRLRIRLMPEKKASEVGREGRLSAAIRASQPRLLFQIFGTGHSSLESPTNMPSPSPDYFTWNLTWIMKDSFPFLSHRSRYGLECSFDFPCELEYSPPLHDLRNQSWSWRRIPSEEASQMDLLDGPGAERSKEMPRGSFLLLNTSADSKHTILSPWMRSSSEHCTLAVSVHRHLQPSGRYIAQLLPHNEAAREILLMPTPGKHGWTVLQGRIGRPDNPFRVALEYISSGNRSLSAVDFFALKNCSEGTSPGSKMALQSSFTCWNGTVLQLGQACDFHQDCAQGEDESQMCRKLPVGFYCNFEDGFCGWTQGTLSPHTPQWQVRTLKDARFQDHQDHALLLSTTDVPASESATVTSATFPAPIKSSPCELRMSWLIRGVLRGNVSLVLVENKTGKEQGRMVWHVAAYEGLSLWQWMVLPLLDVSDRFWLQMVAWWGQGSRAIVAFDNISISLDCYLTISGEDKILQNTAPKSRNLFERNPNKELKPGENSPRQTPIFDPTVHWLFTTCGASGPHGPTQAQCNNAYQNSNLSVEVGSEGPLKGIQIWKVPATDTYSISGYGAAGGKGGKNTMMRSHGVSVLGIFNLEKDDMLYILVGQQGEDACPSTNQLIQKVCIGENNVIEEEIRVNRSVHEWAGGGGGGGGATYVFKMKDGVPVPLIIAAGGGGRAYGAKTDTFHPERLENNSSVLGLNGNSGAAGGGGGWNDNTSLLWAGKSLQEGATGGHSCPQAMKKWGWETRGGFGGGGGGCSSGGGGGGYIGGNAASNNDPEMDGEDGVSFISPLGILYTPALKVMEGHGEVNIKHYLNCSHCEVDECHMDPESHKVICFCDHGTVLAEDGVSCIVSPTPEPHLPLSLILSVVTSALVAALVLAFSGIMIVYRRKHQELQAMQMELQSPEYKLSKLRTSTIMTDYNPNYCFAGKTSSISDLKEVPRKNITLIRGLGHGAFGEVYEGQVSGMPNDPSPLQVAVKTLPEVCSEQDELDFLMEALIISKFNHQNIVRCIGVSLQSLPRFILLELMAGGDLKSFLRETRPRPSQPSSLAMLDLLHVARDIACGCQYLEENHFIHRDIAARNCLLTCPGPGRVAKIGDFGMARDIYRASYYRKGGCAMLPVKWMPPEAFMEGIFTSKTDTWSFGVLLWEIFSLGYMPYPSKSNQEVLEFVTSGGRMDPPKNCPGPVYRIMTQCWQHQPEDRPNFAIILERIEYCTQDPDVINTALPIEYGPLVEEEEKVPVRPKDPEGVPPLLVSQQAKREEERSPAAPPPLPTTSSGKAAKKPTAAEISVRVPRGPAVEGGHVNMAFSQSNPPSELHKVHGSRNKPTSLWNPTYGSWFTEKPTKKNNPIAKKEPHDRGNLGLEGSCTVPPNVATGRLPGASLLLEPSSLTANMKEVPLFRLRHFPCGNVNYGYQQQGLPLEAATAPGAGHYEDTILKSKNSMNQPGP

Sequence of kinases (KINOMEscan panel) (Homo sapiens, UniProt Q16513) (Q16513 whole entry): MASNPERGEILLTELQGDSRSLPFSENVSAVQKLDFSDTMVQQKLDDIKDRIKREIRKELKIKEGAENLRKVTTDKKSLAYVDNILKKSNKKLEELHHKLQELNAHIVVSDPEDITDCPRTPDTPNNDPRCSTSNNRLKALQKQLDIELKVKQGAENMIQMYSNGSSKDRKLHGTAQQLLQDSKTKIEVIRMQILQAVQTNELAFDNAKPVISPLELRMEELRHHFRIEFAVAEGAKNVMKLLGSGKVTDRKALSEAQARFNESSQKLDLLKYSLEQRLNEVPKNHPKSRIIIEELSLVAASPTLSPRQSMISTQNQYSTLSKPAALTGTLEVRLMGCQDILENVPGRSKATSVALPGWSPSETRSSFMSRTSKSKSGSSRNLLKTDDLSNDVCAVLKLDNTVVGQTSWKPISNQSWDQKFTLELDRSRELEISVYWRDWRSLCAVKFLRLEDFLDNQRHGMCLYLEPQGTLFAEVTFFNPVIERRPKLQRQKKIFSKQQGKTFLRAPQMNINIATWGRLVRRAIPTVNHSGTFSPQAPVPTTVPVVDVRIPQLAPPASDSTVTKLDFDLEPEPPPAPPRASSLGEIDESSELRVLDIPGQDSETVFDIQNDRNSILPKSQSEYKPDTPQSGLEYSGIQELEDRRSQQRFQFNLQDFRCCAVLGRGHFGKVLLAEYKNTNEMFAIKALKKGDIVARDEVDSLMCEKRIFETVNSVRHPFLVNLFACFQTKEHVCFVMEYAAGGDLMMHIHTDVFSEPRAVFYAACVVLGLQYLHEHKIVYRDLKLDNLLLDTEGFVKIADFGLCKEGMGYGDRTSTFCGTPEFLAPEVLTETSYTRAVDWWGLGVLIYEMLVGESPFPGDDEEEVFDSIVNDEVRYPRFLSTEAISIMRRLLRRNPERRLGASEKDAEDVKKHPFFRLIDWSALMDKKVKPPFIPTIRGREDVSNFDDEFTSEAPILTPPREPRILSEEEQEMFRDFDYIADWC
Sequence of kinases (KINOMEscan panel) (Homo sapiens, UniProt O60331) (O60331 whole entry): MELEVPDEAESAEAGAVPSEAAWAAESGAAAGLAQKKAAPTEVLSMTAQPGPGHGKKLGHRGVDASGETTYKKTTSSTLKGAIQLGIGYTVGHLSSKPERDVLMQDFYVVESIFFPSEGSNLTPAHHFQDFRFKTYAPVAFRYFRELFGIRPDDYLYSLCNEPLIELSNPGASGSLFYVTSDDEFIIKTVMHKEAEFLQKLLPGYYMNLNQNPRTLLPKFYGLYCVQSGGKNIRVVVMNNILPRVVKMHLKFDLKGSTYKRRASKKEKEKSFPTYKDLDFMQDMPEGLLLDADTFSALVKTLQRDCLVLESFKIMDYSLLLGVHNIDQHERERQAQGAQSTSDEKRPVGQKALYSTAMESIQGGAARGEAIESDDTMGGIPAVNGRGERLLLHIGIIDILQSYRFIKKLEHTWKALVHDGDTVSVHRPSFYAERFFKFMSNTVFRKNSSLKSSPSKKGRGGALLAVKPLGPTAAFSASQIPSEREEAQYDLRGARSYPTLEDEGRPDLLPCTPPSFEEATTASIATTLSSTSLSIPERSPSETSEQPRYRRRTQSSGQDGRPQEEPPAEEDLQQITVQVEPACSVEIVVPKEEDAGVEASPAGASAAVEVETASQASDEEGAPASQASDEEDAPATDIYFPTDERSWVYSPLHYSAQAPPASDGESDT
Sequence of kinases (KINOMEscan panel) (Homo sapiens, UniProt Q9HAZ1) (Q9HAZ1 whole entry): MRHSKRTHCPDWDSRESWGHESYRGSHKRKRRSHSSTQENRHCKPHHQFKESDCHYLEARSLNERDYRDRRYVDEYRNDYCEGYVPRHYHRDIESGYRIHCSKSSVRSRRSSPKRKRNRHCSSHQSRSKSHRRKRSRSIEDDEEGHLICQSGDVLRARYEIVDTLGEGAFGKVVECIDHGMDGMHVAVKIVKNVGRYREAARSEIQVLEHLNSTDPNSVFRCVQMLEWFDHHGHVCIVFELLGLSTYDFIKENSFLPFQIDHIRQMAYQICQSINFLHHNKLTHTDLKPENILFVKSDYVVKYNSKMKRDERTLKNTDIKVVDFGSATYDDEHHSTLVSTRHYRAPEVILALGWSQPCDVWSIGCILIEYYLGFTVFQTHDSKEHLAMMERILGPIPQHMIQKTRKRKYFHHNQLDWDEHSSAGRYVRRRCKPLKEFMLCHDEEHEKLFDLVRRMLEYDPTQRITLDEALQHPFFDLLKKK
Sequence of kinases (KINOMEscan panel) (Homo sapiens, UniProt P54764) (P54764 20-986): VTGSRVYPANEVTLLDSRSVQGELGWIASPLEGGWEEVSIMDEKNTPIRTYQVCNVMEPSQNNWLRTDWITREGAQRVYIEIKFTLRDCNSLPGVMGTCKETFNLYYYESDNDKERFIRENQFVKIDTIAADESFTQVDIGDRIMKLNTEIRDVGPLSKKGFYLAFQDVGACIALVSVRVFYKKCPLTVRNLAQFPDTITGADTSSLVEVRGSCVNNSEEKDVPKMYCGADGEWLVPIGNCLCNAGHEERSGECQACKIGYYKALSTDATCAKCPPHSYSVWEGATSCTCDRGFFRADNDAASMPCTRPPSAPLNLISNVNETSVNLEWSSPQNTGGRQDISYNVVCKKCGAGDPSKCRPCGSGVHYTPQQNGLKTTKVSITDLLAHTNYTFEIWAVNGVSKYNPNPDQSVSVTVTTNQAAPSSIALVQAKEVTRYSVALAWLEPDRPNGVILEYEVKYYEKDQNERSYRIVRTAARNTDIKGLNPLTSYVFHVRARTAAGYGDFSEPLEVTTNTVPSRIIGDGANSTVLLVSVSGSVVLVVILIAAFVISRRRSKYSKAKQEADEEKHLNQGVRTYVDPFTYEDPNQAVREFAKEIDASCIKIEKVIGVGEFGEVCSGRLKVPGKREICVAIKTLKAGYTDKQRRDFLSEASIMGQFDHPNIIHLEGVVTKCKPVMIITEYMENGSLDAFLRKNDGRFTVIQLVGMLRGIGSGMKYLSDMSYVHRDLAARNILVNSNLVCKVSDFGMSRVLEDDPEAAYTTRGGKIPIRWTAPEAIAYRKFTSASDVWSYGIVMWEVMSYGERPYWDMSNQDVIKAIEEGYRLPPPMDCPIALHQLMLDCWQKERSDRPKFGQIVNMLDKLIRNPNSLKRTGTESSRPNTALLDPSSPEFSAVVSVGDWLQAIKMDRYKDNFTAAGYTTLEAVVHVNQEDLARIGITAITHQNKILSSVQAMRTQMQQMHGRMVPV

On to `Cc1cccc(-c2nc(Nc3ccncc3)c3ccccc3n2)n1` [NK215], for which the “KINOMEscan CHUK/IKK-alpha” value in data set [1] is 0. The “KINOMEscan PIP5K1C” value in data set [2] is on record as 40. In data set [3], the “KINOMEscan EPHA4” value is listed as 18. The “KINOMEscan ITK” value in data set [4] was 24. In data set [5], the “KINOMEscan PKN2” value is 0. In data set [6], the “KINOMEscan CLK4” value is recorded as 0. For the same compound, the “KINOMEscan ALK” value in data set [7] is 0.
